In patent publication US7138421B2, “Anti-androgenic pyrrolidines with tumor-inhibiting action” (Schring Aktiengesellschaft, priority 2003, dated 2006):
Where two headings read alike, the source gives them in different places.

Tests used:
androgen receptor = target: T1, androgen receptor (Homo sapiens, UniProt P10275, T878A); format: cell-based
T1 construct: Destabilization of AR in LNCaP Cells by Test Substances; endogenous in cells; host or cells: LNCaP (human prostate cell line)
T1 sequence (P10275 1-920 T878A): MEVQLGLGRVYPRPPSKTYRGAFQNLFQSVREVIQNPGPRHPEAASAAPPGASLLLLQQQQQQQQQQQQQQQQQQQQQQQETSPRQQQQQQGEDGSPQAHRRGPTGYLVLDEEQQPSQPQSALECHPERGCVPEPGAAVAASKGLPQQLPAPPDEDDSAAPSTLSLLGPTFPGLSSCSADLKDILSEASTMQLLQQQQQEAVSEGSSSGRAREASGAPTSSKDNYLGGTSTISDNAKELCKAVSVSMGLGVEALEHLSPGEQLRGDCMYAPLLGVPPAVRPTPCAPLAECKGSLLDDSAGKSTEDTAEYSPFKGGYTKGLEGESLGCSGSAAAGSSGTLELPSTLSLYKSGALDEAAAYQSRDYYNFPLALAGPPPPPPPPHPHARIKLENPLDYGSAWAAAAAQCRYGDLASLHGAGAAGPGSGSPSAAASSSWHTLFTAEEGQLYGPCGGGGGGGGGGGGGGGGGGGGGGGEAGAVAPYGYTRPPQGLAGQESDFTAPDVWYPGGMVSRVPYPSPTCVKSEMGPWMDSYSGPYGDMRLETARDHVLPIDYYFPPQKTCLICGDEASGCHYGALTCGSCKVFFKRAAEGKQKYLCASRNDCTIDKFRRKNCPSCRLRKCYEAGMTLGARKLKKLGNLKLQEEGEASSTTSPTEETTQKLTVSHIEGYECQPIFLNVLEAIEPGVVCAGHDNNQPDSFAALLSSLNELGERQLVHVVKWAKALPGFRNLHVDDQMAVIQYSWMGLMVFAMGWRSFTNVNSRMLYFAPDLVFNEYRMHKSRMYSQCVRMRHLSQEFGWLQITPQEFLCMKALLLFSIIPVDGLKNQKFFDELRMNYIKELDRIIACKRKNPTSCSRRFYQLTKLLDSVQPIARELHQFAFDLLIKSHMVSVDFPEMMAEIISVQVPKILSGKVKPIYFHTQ

LNCaP cells = assay: Inhibition of the proliferation of LNCaP cells (crystal violet assay); format: cell-based, human; settings: for inhibition at 1 µM / IC50: Homo sapiens, LNCaP; for IC50: 7 to 8 days; for antiproliferative action (in words): LNCaP cells
Protocol: For the proliferation assay, 6000 LNCaP cells/well (Horoszewicz et al. Cancer Res. 1983, 43, 1809–1817) in a microtiter plate (96-well) in 50 μl of RPMI1640 medium are grown with 5% CCS and cultivated as in Model 1. After 24 hours, the cells receive 50 μl of 2×-concentrated test substance, diluted in culture medium. The solvent concentration is 0.5% DMSO. After 4 days, the cells receive another 100 μl of 1×-concentrated test substance, diluted in culture medium. After 7 to 8 days, the proliferation rate of the cells is determined by means of crystal violet assay (Gillies et al. Anal. Biochem. 1986, 159, 109–113). To determine the antagonism, the substance treatment is performed in the presence of […] of R1881 (1:1000 dilution of ethanolic solution). Control cells receive only 0.5% DMSO. For the agonism, the cells are treated only with test substance (without R1881).

seminal vesicles = assay: Anti-androgenic action on testosterone-stimulated growth of the seminal vesicles of castrated mice; format: in vivo, mouse; settings: 30 mg/kg s.c., 7 days, castrated mice with testosterone propionate
Protocol: The function and the size of accessory reproductive glands (prostate and seminal vesicles) depend on androgens. In castrated animals, a growth of these organs is induced by the administration of androgen. Simultaneous treatment with anti-androgens inhibits this growth in a dose-dependent manner. For the examination of test substances, the mice were castrated. On the same day, treatment with testosterone propionate (0.03 mg/mouse) and the test substances (1× daily 10 or 30 mg/kg p.o. in benzyl benzoate-castor oil or ethanol/peanut oil (10:90)) was formulated. The treatment was carried out over 7 days and at the end of the test, the weights of the seminal vesicles and prostate were determined. The inhibition of the seminal vesicle growth, in percent, was calculated in reference to the control groups (with and without testosterone). As a reference substance, cyproterone acetate (30 mg/kg s.c. and p.o.) was used.

[1] = LNCaP cells, 48 h, 1 μM, % of DMSO control
[2] = read-out: IC50 inhibition of the proliferation of LNCaP cells, in the presence of 0.1 nmol of R1881
[3] = 1 μM test substance, compared to cell growth in the presence of 0.1 nmol of R1881, read-out: % Inhibition at 1 μM
[4] = LNCaP cells, 48 h, 10 μM, % of DMSO control
[5] = in the presence of 0.1 nmol of R1881, read-out: IC50 inhibition of the proliferation of LNCaP cells

Row | SMILES | AR Content at 1 μM (androgen receptor; [1]) | IC50 (LNCaP cells; [2]) | inhibition at 1 µM (LNCaP cells; [3]) | IC50 (LNCaP cells; [5]) | other results
1 | CC1(C)C[C@@H](CN2CCCC2)N(CCCCCCCN2CCN(c3ccc(C#N)c(C(F)(F)F)c3)C2=S)C1=O [Example 56, 4-[3-[7-[(2S)-4,4-Dimethyl-5-oxo-2-(pyrrolidin-1-ylmethyl)pyrrolidin-1-yl]heptyl]-2-thioxoimidazolidin-1-yl]-2-(trifluoromethyl)benzonitrile] | 24% | – | – | – | –
2 | CC1(C)C(=O)N(c2ccc(C#N)c(C(F)(F)F)c2)C(=S)N1CCCCO [Example 77 USRe 35956, 4-[3-(4-Hydroxybutyl)-4,4-dimethyl-5-oxo-2-thioxoimidazolidin-1-yl]-2-(trifluoromethyl)benzonitrile, reference compound] | – | > 10000 nM | – | – | inhibition at 1 µM (LNCaP cells; read-out: % Inhibition at 1 μM, 1 μM test substance, compared to cell growth in the presence of 0.1 nmol of R1881): 34%; antiproliferative action (in words) (LNCaP cells): little or no antiproliferative action; AR Content at 1 μM (androgen receptor): 230%; AR Content at 10 μM (androgen receptor): 180%
3 | CC1(C)C(=O)N(c2ccc(C#N)c(C(F)(F)F)c2)C(=S)N1CCCCCCCN1CCC[C@H]1CO [Example 9, 4-[3-[7-[(2S)-2-(Hydroxymethyl)pyrrolidin-1-yl]heptyl]-4,4-dimethyl-5-oxo-2-thioxoimidazolidin-1-yl]-2-(trifluoromethyl)benzonitrile] | 63% | 26 nM | 92% | – | –
4 | C[C@]1(O)CC[C@H]2[C@@H]3CCC4=CC(=O)CCC4=C3C=C[C@@]21C [Example R1881, 17β-hydroxy-17α-methylestra-4,9,11-trien-3-one, reference compound] | – | – | – | – | influence on AR content (in words) (androgen receptor; LNCaP cells): stabilizes the AR protein; AR Content (androgen receptor; LNCaP cells, R1881 at 10 nM (printed in the 10 μM column), % of DMSO control): 250%
5 | C[C@@H]1CC[C@H](C)N1CCCCCCCCN1C(=S)N(c2ccc(C#N)c(C(F)(F)F)c2)C(=O)C1(C)C [Example 37, 4-[3-[8-[(2R,5S)-rel-2,5-Dimethylpyrrolidin-1-yl]octyl]-4,4-dimethyl-5-oxo-2-thioxoimidazolidin-1-yl]-2-(trifluoromethyl)benzonitrile] | 57% | 11 nM | 99% | – | –
6 | CC1(C)C(=O)N(c2ccc(C#N)c(C(F)(F)F)c2)C(=S)N1CCO [Example 71 USRe 35956, 4-[3-(2-Hydroxyethyl)-4,4-dimethyl-5-oxo-2-thioxoimidazolidin-1-yl]-2-(trifluoromethyl)benzonitrile, reference compound] | 164% | > 10000 nM | 9% | – | antiproliferative action (in words) (LNCaP cells): little or no antiproliferative action; AR Content at 10 μM (androgen receptor; [4]): 191%
7 | CC(=O)O[C@]1(C(C)=O)CC[C@H]2[C@@H]3C=C(Cl)C4=CC(=O)[C@@H]5C[C@@H]5[C@]4(C)[C@H]3CC[C@@]21C [CPA, 17-(acetyloxy)-6-chloro-1β,2β-dihydro-3′H -cyclopropa[1,2]pregna-1,4,6-triene-3,20-dione, reference compound] | – | – | – | – | % Inhibition of MSB Growth (seminal vesicles): 85%
8 | CC1(C)C(=O)N(c2ccc(C#N)c(C(F)(F)F)c2)C(=S)N1CCCCCCN1CC[C@@H](C(N)=O)C1 [Example 52, (R)-1-[6-[3-[4-Cyano-3-(trifluoromethyl)phenyl]-5,5-dimethyl-4-oxo-2-thioxoimidazolidin-1-yl]hexyl]pyrrolidine-4-carboxamide] | 74% | 12 nM | 100% | – | AR Content at 10 μM (androgen receptor; [4]): 36%
9 | CC1(C)C(=O)N(c2ccc(C#N)c(C(F)(F)F)c2)C(=S)N1CCCCN1CCCC1 [Comparison 1, 4-[4,4-Dimethyl-5-oxo-3-[4-(pyrrolidin-1-yl)butyl]-2-thioxoimidazolidin-1-yl]-2-(trifluoromethyl)benzonitrile, reference compound] | – | – | 20% | 4300 nM | antiproliferative action (in words) (LNCaP cells): considerably reduced antiproliferative activity
10 | CC(C)(O)[C@H]1CCCN1CCCCCCCN1C(=S)N(c2ccc(C#N)c(C(F)(F)F)c2)C(=O)C1(C)C [Example 43, 4-[3-[7-[(2R)-2-(1-Hydroxy-1-methylethyl)pyrrolidin-1-yl]heptyl]-4,4-dimethyl-5-oxo-2-thioxoimidazolidin-1-yl]-2-(trifluoromethyl)benzonitrile] | – | – | 113% | 26 nM | –
11 | CC1(C)C(=O)N(c2ccc(C#N)c(C(F)(F)F)c2)C(=S)N1CCCCCCCN1CC[C@@H](O)C1 [Example 27, 4-[3-[7-[(R)-3-Hydroxypyrrolidin-1-yl]heptyl]-4,4-dimethyl-5-oxo-2-thioxoimidazolidin-1-yl]-2-(trifluoromethyl)benzonitrile] | – | – | 95% | 57 nM | –
12 | CC(C)(O)[C@@H]1CCCN1CCCCCCCCN1C(=S)N(c2ccc(C#N)c(C(F)(F)F)c2)C(=O)C1(C)C [Example 40, 4-[3-[8-[(2S)-2-(1-Hydroxy-1-methylethyl)pyrrolidin-1-yl]octyl]-4,4-dimethyl-5-oxo-2-thioxoimidazolidin-1-yl]-2-(trifluoromethyl)benzonitrile] | 40% | 11 nM | 118% | – | –
13 | CC1(C)C(=O)N(c2ccc(C#N)c(C(F)(F)F)c2)C(=S)N1CCCCCCCN1CC[C@H](C(N)=O)C1 [Example 50, (S)-1-[7-[3-[4-Cyano-3-(trifluoromethyl)phenyl]-5,5-dimethyl-4-oxo-2-thioxoimidazolidin-1-yl]heptyl]pyrrolidine-4-carboxamide] | – | – | 110% | 15 nM | –
14 | CCC(O)(CC)[C@@H]1CCCN1CCCCCCCCN1C(=S)N(c2ccc(C#N)c(C(F)(F)F)c2)C(=O)C1(C)C [Example 47, 4-[3-[8-[(2S)-2-(1-Hydroxy-1-ethylpropyl)pyrrolidin-1-yl]octyl]-4,4-dimethyl-5-oxo-2-thioxoimidazolidin-1-yl]-2-(trifluoromethyl)benzonitrile] | – | – | 99% | 27 nM | –
15 | CC(C)(O)[C@@H]1CCCN1CCCCCCCCCN1C(=S)N(c2ccc(C#N)c(C(F)(F)F)c2)C(=O)C1(C)C [Example 41, 4-[3-[9-[(2S)-2-(1-Hydroxy-1-methylethyl)pyrrolidin-1-yl]nonyl]-4,4-dimethyl-5-oxo-2-thioxoimidazolidin-1-yl]-2-(trifluoromethyl)benzonitrile] | – | – | 89% | 48 nM | –
16 | COC[C@H]1CCCN1CCCCCCCN1C(=S)N(c2ccc(C#N)c(C(F)(F)F)c2)C(=O)C1(C)C [Example 16, 4-[3-[7-[(2R)-2-(Methoxymethyl)pyrrolidin-1-yl]heptyl]-4,4-dimethyl-5-oxo-2-thioxoimidazolidin-1-yl]-2-(trifluoromethyl)benzonitrile] | – | – | 98% | 18 nM | –
